{"source": "patent US11179436B2", "about": "“Methods and compositions comprising a C-terminal Bax peptide” (University of Central Florida Research Foundation, Inc., priority 2011, dated 2021)", "key": {"MDA-MB-231 cells [1]": {"test_system": "MDA-MB-231 cells", "experiment": "Cell death by CT20 peptide/nanoparticles and/or CDDP, with Z-VAD-fmk or Bcl-2 overexpression", "assay_type": "cell-based", "details": "FIG. 6A; for effect of caspase inhibition with Z-VAD-FMK on cell death: 100 μM Z-VAD-fmk pre-treatment; for cell death / loss of membrane integrity: CT20 peptide/nanoparticles 350 pM; for effect of Bcl-2 overexpression on cell death: transient Bcl-2 transfection", "method": "MDA-MB-231 cells were transiently transfected with pcDNA-Bcl2 (or as control pEGFP (Clontech)) using the TransIT-LT1 transfection reagent (Minis). To assess transfection efficiency, cells were assayed microscopically for EGFP expression. To assess Bcl-2 expression, cells lysates were immunoblotted.\nVisualization of the uptake and effects of the fluorescent dye (DiI)-loaded nanoparticles in HCT-116, MCF-7, and MDA-MD-231 cells was observed using a 10× air objective with a numerical aperture of 0.3, using ex/em of 514/587. All cells were loaded with MitoTracker. Visualization of the HCT-116 cell lines was observed using Plan-Apochromat 63× Oil objective. MCF-7 and MDA-MB-231 images were captured using Plan-Apochromat 40× Oil objective. All time-lapse images were generated in 2D by capturing 6 time points per hour for 24 hours of the same field.\n(§1) HCT-116, MCF-7, or MDA-MB-231 cells were collected at a final concentration of 1×10^6 cells/mL and assayed using the SYTOX® AADvanced™ dead cell stain solution (Invitrogen). Cells were analyzed using the BD FACSCanto flow cytometer. SYTOX® AADvanced™ was visualized at 488 nm and emissions collected at 695 nm. Analysis of data was done using FSC Express software (DeNovo). Membrane asymmetry was assessed using the Violet Ratiometric Membrane Asymmetry Probe/Dead Cell Apoptosis Kit (Invitrogen) according to the manufacturer's protocol.\n(§2) To evaluate apoptosis, cells were pre-treated with 100 μM of the pan-caspase inhibitor Z-VAD-fmk (EMD Biosciences) or transiently transfected with Bcl-2, then treated with either CT20/nanoparticles or cisplatin (CDDP) alone or in combination as indicated in figure legends. Following treatment, cells were analyzed for cell death and membrane asymmetry.\nWhether the CT20 peptide was able to kill the breast cancer cells, MCF-7 and MDA-MB-231, was examined. […] For each sample, three different fields of view were acquired. Images are representative “snapshots” of three independent experiments Most MCF-7 cells died within 24 hours, while loss of membrane integrity was detected by 3 hours of treatment (FIG. 5B). […] Within three hours, increased membrane rupture was detected in MDA-MB-231 cells treated with COOH-nanoparticles loaded with CT20 peptide (FIG. 5D).\nTo investigate the mechanism by which the CT20p peptide was inducing cell death, MDA-MB-231 cells were treated with CT20 Bax peptide/nanoparticles (350 pM). A caspase inhibitor (e.g., ZVAD-Fmk and/or CDDP) was added or Bcl-2 was overexpressed. […] The expression of Bcl-2 by transfected cells was confirmed by immunoblotting lysates prepared from cells (FIG. 10)."}, "MDA-MB-231 cells [2]": {"test_system": "MDA-MB-231 cells", "experiment": "Membrane asymmetry with violet ratiometric probe", "assay_type": "cell-based", "details": "FIG. 6B", "method": "as §1, §2\nTherefore, to determine whether the CT20p peptide induced apoptotic cell death, the amount of membrane asymmetry caused by flipping of phospholipids phospholipids in the plasma membrane using a violet ratiometric probe was determined. In FIG. 6B, dot blots show the comparison of loss of membrane integrity to changes in membrane symmetry in MDA-MB-231 cells treated with CT20p peptide and/or CDDP. […] This was minimally affected by caspase inhibition or Bcl-2 expression. […]"}, "[3]": {"experiment": "Calcein release from calcein-loaded large unilamellar vesicles", "assay_type": "biochemical", "details": "for maximal release of calcein upon treatment with detergent: Triton X-100 after peptide; for maximal release of calcein upon treatment with detergent / release of calcein from mitochondrial-like lipid vesicles: FIG. 1C; for release of calcein from mitochondrial-like lipid vesicles: free peptide", "method": "Calcein release from artificial membranes was measured on a JASCO 810 spectropolarimeter (Jasco Inc.) with a Peltier water cooled thermostat and a photomultiplier tube mounted at 90 degrees for fluorescence measurements. Large unilamellar vesicles (LUVs) were prepared with the following modifications: Lipids (Avanti Polar Lipids) in chloroform were mixed in the following molar ratios: 52.5% 1-palmitoyl-2-oleyl-sn-glycero-3-phosphatidylcholine (POPC), 21% 1-palmitoyl-2-oleyl-sn-glycero-3-phosphatidylethanolamine (POPE), 13% bovine liver L-α phosphatidylinositol (PI), 10% cholesterol and 3.5% 1-palmitoyl-2-oleyl-sn-glycero-3-phosphatidylglycerol (POPG). These rations mimicked the outer mitochondrial membrane. After removing chloroform and desiccating, the dried lipid film was resuspended in 50 mM HEPES, pH 7, supplemented with 110 mM NaCl and 80 mM calcein and extruded with Avanti's mini extruder (Alabaster, Ala.). External calcein was removed by gel filtration through a 1.5×50 cm Econo-Column (Bio-Rad) freshly packed with Sephadex 50 (GE Healthcare). CT20 Bax peptides were added at concentrations equivalent to those used with cells in culture. Calcein fluorescence was excited at 495 nm and emission spectra recorded between 510 and 550 nm (excitation/ emission slits: 10/3 nm). Samples were maintained at 37° C. and a final measurement taken at 24 hours. Maximum calcein release was obtained by the addition of Triton ×100 (0.1% final concentration) to calcein loaded LUVs without nanoparticles that had had been incubated at 37° C. for 24 hours after the addition of 10 μL DMSO.\nUsing a commercially synthesized peptide composed of the last twenty amino acids ([…]) of the C-terminus of Bax (CT20), the ability of CT20p peptideto insert and permeabilize lipid membranes was examined. Liposomes contained phospholipids that composed the mitochondrial outer membrane and were loaded with calcein. […] In FIG. 1C, the red lines indicate maximal release of calcein with Triton X-100. The blue lines indicate treatment with DMSO and the green lines (except for control) indicate treatment with CT20 Bax peptides.\nTo determine whether the CT20p peptide could directly kill cancer cells, the CT20 wild type peptide was encapsulated in polymeric nanoparticles. As the CT20p peptide is amphipathic, it can be encapsulated within the hydrophobic pockets of aliphatic polymeric nanoparticles. […] To verify that the nanoparticles would not release the CT20 peptide at neutral pH, calcein loaded liposomes were prepared.\nIn FIG. 9, a calcein release assay was performed with calcein loaded lipid vesicles prepared with the composition of the mitochondrial membrane. Calcein release was measured as fluorescence. Controls were calcein release achieved with CT20p peptide alone and maximum calcein release obtained upon addition of Triton x100. A representative experiment of two independent experiments is shown. This confirmed that cargo is released from nanoparticles only by intracellular esterases or acidic pH (Santra et al., 2010)."}, "[4]": {"test_system": "MDA-MB-231 cells implanted in the flanks of nude mice", "experiment": "Murine tumor experiment, intratumoral injection, tumor volume by ultrasound", "assay_type": "in vivo", "details": "for tumor growth / change in tumor volume: intratumoral injections over a 4-5 day period, versus empty nanoparticles or PBS", "method": "One to two million MBA-MD-231 cells were harvested from culture and injected subcutaneously into the right and left flanks of 16 female nude mice (nu/nu, Charles River). After 2-3 weeks, tumor volume and growth was assessed by ultrasound (VisualSonics Vevo 2100). Mice with tumors were injected intratumorally with PBS, unloaded polymeric nanoparticles, or CT20 Bax peptide-loaded polymeric nanoparticles at 4× the concentrations described above. Injections were performed twice over a 4-5 day period. Mice were observed 0-5 days post-treatments and tumor volume assessed by ultrasound.\nMDA-MB-231 cells were implanted in the flanks of nude mice. Initial growth of tumors was detected after 2 weeks. At this time tumors were measured, and over a 4-5 day period, the mice were treated with intratumoral injections of PBS, unloaded or empty nanoparticles (NP), or CT20 peptide/nanoparticles.\nFIG. 6D provides representative ultrasound image of changes in tumor volume induced by treatment on days 0, 2 and 4 with the unloaded or CT20 peptide loaded nanoparticles. These findings indicate reduced uptake or effectiveness in non-cancerous cells."}, "wild type E. coli [5]": {"test_system": "wild type E. coli", "experiment": "E. coli growth in broth by optical density", "assay_type": "cell-based", "details": "FIG. 14", "method": "Attributes are shared among the peptides. […] The E. coli were grown in the presence of a peptide, concentrations of CT20p peptide or for control, SCR peptide, or no peptide for a control, in standard conditions for growing bacteria in broth media."}, "wild type E. coli [6]": {"test_system": "wild type E. coli", "experiment": "E. coli colony formation after treatment", "assay_type": "cell-based", "details": "FIG. 15", "method": "This was determined by plating the E. coli after treatment then counting the resulting colonies after 24 hour incubation. […] The bacterial culture media was plated after 24 hours of treatment/exposure to Ct20p or the control conditions, a peptide (SCR) or no peptide and addition of DMSO, and the resulting colonies were counted. […] A conclusion was that the inhibition of growth seen in FIG. 14 was due to the killing or lysing of bacteria."}, "[7]": {"experiment": "Pore formation in zwitterionic and anionic membranes, kinetics of calcein release and structural studies", "assay_type": "biochemical", "details": "calcein transport", "from_the_text": "An analysis of formation of relatively large membrane pores by Bax C-terminal 20-reside peptide (CT20p) and two mutants where the two native lysines are replaced either with glutamates (charge reversal mutation) or leucines (charge neutralization mutation) were examined. […] The kinetics of calcein release at various concentrations of the three peptides allowed identification of the second-order rate constants of pore formation within the membrane, the affinity constants of peptide units composing the pore, and the oligomeric pore structure. Nucleation of the pore is shown to be relatively slow and involve 2-3 peptide molecules, followed by a faster process of assembly of the pore that includes up to eight peptide molecules. Structural studies led to a model of an octameric transmembrane pore with an inner diameter of 20-22 A. Analysis of the kinetics of calcein release from lipid vesicles allows determination of rate constants of pore formation, peptide-peptide affinities within the membrane, the oligomeric state of transmembrane pores, and the role of the lysine residues. […]\nAdditionally, the pore structure was analyzed by polarized Fourier transform infrared, circular dichroism, and fluorescence experiments on the peptides reconstituted in phospholipid membranes. […]"}}}
{"molecule": "[NH2][Pt]([NH2])([Cl])[Cl]", "note": "[CDDP, cisplatin, reference compound]", "values": [{"measurement": "effect of caspase inhibition with Z-VAD-FMK on cell death", "setting": "MDA-MB-231 cells [1]", "result": "inhibited by ZVAD-FMK"}, {"measurement": "cell death / loss of membrane integrity", "setting": "MDA-MB-231 cells [1]", "result": "induced cell death"}, {"measurement": "effect of Bcl-2 overexpression on cell death", "setting": "MDA-MB-231 cells [1]", "result": "impaired death"}, {"measurement": "changes in membrane symmetry", "setting": "MDA-MB-231 cells [2]", "result": "induced significant alterations in the membrane symmetry"}]}
{"molecule": "VTIFVAGVLTASLTIWEEMG [CT20-EE]", "values": [{"measurement": "maximal release of calcein upon treatment with detergent", "setting": "[3]", "result": "did not occur"}, {"measurement": "release of calcein from mitochondrial-like lipid vesicles", "setting": "[3]", "result": "did not cause calcein release"}]}
{"molecule": "VTIFVAGVLTASLTIWKKMG [CT20p peptide]", "values": [{"measurement": "release of calcein from liposomes", "setting": "[3]; 350 pM, pH 7, FIG. 9", "result": "did induce the release of calcein"}, {"measurement": "maximal release of calcein upon treatment with detergent", "setting": "[3]", "result": "impaired the maximal release of calcein"}, {"measurement": "release of calcein from mitochondrial-like lipid vesicles", "setting": "[3]", "result": "caused the release of calcein"}, {"measurement": "effect of caspase inhibition with Z-VAD-FMK on cell death", "setting": "MDA-MB-231 cells [1]", "result": "largely unaffected"}, {"measurement": "cell death / loss of membrane integrity", "setting": "MDA-MB-231 cells [1]", "result": "caused significant loss of membrane integrity"}, {"measurement": "effect of Bcl-2 overexpression on cell death", "setting": "MDA-MB-231 cells [1]", "result": "did not impair the death activity"}, {"measurement": "tumor growth / change in tumor volume", "setting": "[4]", "result": "tumor regression"}, {"measurement": "tumor growth / change in tumor volume", "setting": "[4]; listed as CT20 peptide", "result": "prevented tumor growth"}, {"measurement": "damage of normal tissue surrounding the tumors", "setting": "[4]; ultrasound, FIG. 6D", "result": "little to no observable damage of normal tissue"}, {"measurement": "time at which the growth curve reached a plateau", "setting": "wild type E. coli [5]", "result": 13, "unit": "h"}, {"measurement": "nature of effect from colony counts", "setting": "wild type E. coli [6]; 24 hours of treatment", "result": "bactericidal"}, {"measurement": "minimum inhibitory concentration (MiC)", "setting": "wild type E. coli [6]; plated after treatment, colonies counted after 24 hour incubation", "result": 25, "unit": "mg"}, {"measurement": "pore formation in lipid membranes", "setting": "[7]", "result": "efficient at forming pores"}, {"measurement": "pore formation in lipid membranes", "setting": "[7]; listed as wild-type peptide", "result": "most efficient pores"}]}
{"molecule": "VTIFVAGVLTASLTIWLLMG [CT20-LL]", "values": [{"measurement": "maximal release of calcein upon treatment with detergent", "setting": "[3]", "result": "impaired the maximal release of calcein"}, {"measurement": "release of calcein from mitochondrial-like lipid vesicles", "setting": "[3]", "result": "did not cause calcein release"}]}
